Where a name gives a salt, the structure may show the parent alone. Positions of bridges follow the written chain, without caps; N, C: chain ends. Non-standard residues stand in square brackets, D forms with d. Residues, ends and D or L forms follow the SMILES beside them. *: point of attachment. X1 = CC[C@H](C)CCCCC(=O)*; Dab = NCC[C@H](N)C(=O)O
How the values were obtained:
[1] = Population pharmacokinetic modeling of intravenous colistin sulfate (plasma LC-MS/MS, Phoenix NLME); assay type: in vivo, human
Method: This study was conducted at the Third Xiangya Hospital of Central South University between May 2021 and April 2022. The design of this research fully conformed to the principles of the Helsinki Accords, and the study protocol was approved by the Research Ethics Committee of the Third Xiangya Hospital of Central South University (No: 2021-S396). Written informed consent was obtained from all patients or their legal representatives.
Colistin sulfate treatment was at the discretion of their medical teams. […] Colistin sulfate was routinely subjected to therapeutic drug monitoring (TDM) in our hospital. […] Other blood samples were collected randomly from residual blood of blood gas analysis or routine blood tests. In addition, urine samples from 6 patients with catheters in the intensive care unit were collected and recorded across a dosage interval (0–12 h after dosing) after 72 h of therapy. All samples were centrifuged for 10 min (4,000 ×g), and the supernatant was immediately collected and stored at −80°C pending analysis.
Colistin A and colistin B in plasma and urinary samples were quantified using a validated ultraperformance liquid chromatography tandem mass spectrometry (LC-MS/MS) assay. Briefly, samples were pretreated with acetonitrile, and 1 μL supernatant was injected into the LC-MS/MS instrument for analysis. A Waters XBridge BEH HILIC (4.6 × 150 mm, 2.5 μm) column was used. The mobile phase, consisting of eluents A (0.1% formic acid in water, vol/vol) and B (methanol), was delivered at a flow of 0.5 ml/min. Analysis of independently prepared quality control samples indicated good reproducibility (coefficients of variation ≤12.57%), and accuracy ranged from 88.52% to 109.43%. The limit of quantification was 0.034 mg/L for colistin A and 0.059 mg/L for colistin B. Since colistin A and B had similar structures, molecular weights and pharmacokinetic characteristics, the concentrations of colistin A and B were added together and referred to as colistin ([Li et al., 2003]; [Couet et al., 2011]).
Population PK analysis was performed using a non-linear mixed-effect modeling with the Phoenix® NLME software (version 8.3.4, Certara L.P. United States). The first-order conditional estimation-extended least-squares (FOCE-ELS) method was used to develop the PPK model. One- and two-compartment models with linear elimination were compared based on Akaike information criteria (AIC) and Bayesian information criterion (BIC). The inter-individual variability of PK parameters was assumed to follow a log-normal distribution and described using an exponential model, and residual variability was described by an additive, proportional, or combined error model. The coefficient of variation (CV%), goodness-of-fit plots, and the likelihood ratio test (-2 loglikelihood; -2LL) were used to evaluate the model.
Then, a stepwise covariate modeling (SCM) method was used to explore candidate covariates on PK parameters, including age, sex, weight, ALT, AST, TBIL, DBIL, TBA, TP, ALB, UA, BUN, CrCL, WBC, NEUT, HGB, RBC, HCT, PLT, PT, TT, APTT, PA, FIB, CRP, PCT, LAC, and 24-h urine volume, where continuous covariates (e.g., age) were modeled by using the power function and categorical covariates (e.g., sex) were described by an exponential function. By comparing with the base model, a drop in objective function value (OFV) > 3.84 (p < 0.05, df = 1) during forward selection steps and an increase of OFV >6.63 (p < 0.01, df = 1) in backward elimination steps were the inclusion criteria for covariates.
Finally, the reliability of the final model was evaluated by goodness-of-fit plots. Additionally, the performance of the final model was assessed by a prediction-corrected visual predictive check (pcVPC) of 1,000 replicates using Monte Carlo simulations, and a bootstrap analysis with 1,000 samples was conducted to evaluate the model stability.

[2] = test system: PA+AB (P. aeruginosa + A. baumannii); assay: MIC for colistin of causative pathogen; assay type: cell-based
[3] = set-up: method as in Couet et al., 2011; settings: colistin converted from CMS; ref Couet et al., 2011; cited from earlier work
[4] = Individual drug exposure at steady state (PK/PD analysis); assay type: in vivo, human
[5] = patient 1, 1.0 MU q12h, CrCL 63.93 ml/min
[6] = patient 2, 1.0 MU q12h, CrCL 138.05 ml/min
[7] = patient 3, 0.75 MU q12h + inhaled 0.25MU q12h, CrCL 193.84 ml/min
[8] = patient 6, 1.0 MU q12h + inhaled 0.25MU q12h, CrCL 23.79 ml/min
[9] = patient 7, 0.75 MU q12h + inhaled 0.25MU q12h, CrCL 10.2 ml/min
[10] = patient 8, 0.75 MU q12h + inhaled 0.25MU q12h, CrCL 62.44 ml/min
[11] = patient 9, 0.75 MU q12h + inhaled 0.25MU q12h, CrCL 70.98 ml/min
[12] = patient 10, 0.75 MU q12h + inhaled 0.25MU q12h, CrCL 29.3 ml/min
[13] = patient 11, 1.0 MU q12h, CrCL 26.81 ml/min
[14] = patient 12, 0.5 MU q8h, CrCL 9.7 ml/min
[15] = patient 13, 0.5 MU q8h, CrCL 52.49 ml/min
[16] = patient 14, 0.5 MU q8h, CrCL 93.28 ml/min
[17] = patient 15, 0.75 MU q8h + inhaled 0.25MU q12h, CrCL 41.41 ml/min
[18] = patient 16, 0.5 MU q8h + inhaled 0.25MU q12h, CrCL 45.07 ml/min
[19] = patient 18, 0.75 MU q12h + inhaled 0.25MU q12h, CrCL 101.48 ml/min
[20] = patient 19, 0.5 MU q8h, CrCL 91.55 ml/min

CC[C@H](C)CCCCC(=O)N[C@@H](CCN)C(=O)N[C@H](C(=O)N[C@@H](CCN)C(=O)N[C@H]1CCNC(=O)[C@H]([C@@H](C)O)NC(=O)[C@H](CCN)NC(=O)[C@H](CCN)NC(=O)[C@H](CC(C)C)NC(=O)[C@@H](CC(C)C)NC(=O)[C@H](CCN)NC1=O)[C@@H](C)O [colistin sulfate] (X1-[Dab]T[Dab][Dab][Dab][dL]L[Dab][Dab]T; lactam 4-C)
dV2dALT, exponential parameter coefficient of ALT to V2, final model estimate ([1]; PPK model, n = 20): 0.635
dCLdCrCL, bootstrap median ([1]; bootstrap with 1,000 samples): 0.373
dV2dALT, bootstrap median ([1]; bootstrap with 1,000 samples): 0.633
tvCL2, bootstrap median ([1]; bootstrap with 1,000 samples): 1.78 L/h
tvCL, bootstrap median ([1]; bootstrap with 1,000 samples): 1.46 L/h
tvV2, bootstrap median ([1]; bootstrap with 1,000 samples): 53.8 L
tvV, bootstrap median ([1]; bootstrap with 1,000 samples): 16.2 L
tvV, typical value of volume of central compartment distribution (V), final model estimate ([1]; critically ill patients, iv, n = 20, 98 plasma concentrations, two-compartment PPK model): 16.1 L
tvCL2, typical value of inter-compartmental clearance (CL2), final model estimate ([1]; critically ill patients, iv, n = 20, two-compartment PPK model): 1.71 L/h
tvV2, typical value of volume of peripheral compartment distribution (V2), final model estimate ([1]; critically ill patients, iv, n = 20, two-compartment PPK model, at ALT 37): 50.5 L
tvCL, typical value of central compartment clearance (CL), final model estimate ([1]; critically ill patients, iv, n = 20, two-compartment PPK model, at CrCL 57.5): 1.50 L/h
CL, median ([1]; six patients with urine samples, median): 1.519 L/h
MIC ([2]; isolates of patient 15, first printed value): 1 µg/mL
MIC ([2]; isolates of patient 15, second printed value): 2 µg/mL
CL [3]: 2.92 L/h
Css, avg [4, 5]: 1990 ng/mL
Css, max [4, 5]: 3980 ng/mL
Css, avg [4, 6]: 1170 ng/mL
Css, max [4, 6]: 2480 ng/mL
Css, avg [4, 7]: 570 ng/mL
Css, max [4, 7]: 1710 ng/mL
Css, min [4, 7]: 130 ng/mL
Css, avg [4, 8]: 2430 ng/mL
Css, max [4, 8]: 3010 ng/mL
Css, min [4, 8]: 1950 ng/mL
Css, avg [4, 9]: 1590 ng/mL
Css, max [4, 9]: 2490 ng/mL
Css, min [4, 9]: 890 ng/mL
Css, avg [4, 10]: 1150 ng/mL
Css, max [4, 10]: 2100 ng/mL
Css, avg [4, 11]: 2040 ng/mL
Css, max [4, 11]: 3020 ng/mL
Css, min [4, 11]: 1400 ng/mL
Css, avg [4, 12]: 1510 ng/mL
Css, max [4, 12]: 2480 ng/mL
Css, min [4, 12]: 870 ng/mL
Css, avg [4, 13]: 4400 ng/mL
Css, max [4, 13]: 5840 ng/mL
Css, avg [4, 14]: 2070 ng/mL
Css, max [4, 14]: 2670 ng/mL
Css, avg [4, 15]: 1490 ng/mL
Css, max [4, 15]: 2090 ng/mL
Css, avg [4, 16]: 740 ng/mL
Css, max [4, 16]: 1340 ng/mL
Css, avg [4, 17]: 2520 ng/mL
Css, max [4, 17]: 3620 ng/mL
Css, avg [4, 18]: 1580 ng/mL
Css, max [4, 18]: 2240 ng/mL
Css, avg [4, 19]: 860 ng/mL
Css, max [4, 19]: 1890 ng/mL
Css, min [4, 19]: 280 ng/mL
Css, avg [4, 20]: 1330 ng/mL
Css, max [4, 20]: 1920 ng/mL
Css, min [4, 20]: 830 ng/mL

Source: PMC9465641 (Frontiers in Pharmacology, 2022)
